The record followed here is ChEMBL document CHEMBL1201862, “PubChem BioAssay data set” (2004).

SMILES strings stand for the structures.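 These data come from cells grown in 96-well plates and exposed to compound for 48 hours at five concentrations. Abbreviation: GI50, concentration required for 50% inhibition of growth.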 Active and inactive are the calls of the source. Cut-off read from the data, not from the text of the source: active = GI50 up to about 1.1 µM and inactive = higher.

Some test systems named below: COLO 205; ACHN; HCT-116; NCI-H23; OVCAR-8; SK-OV-3; OVCAR-4; SR; NCI-H460; HCT-15; UACC-62; K562; OVCAR-3; NCI/ADR-RES; A549; CAKI-1; BT-549; HOP-62; SF-295; RXF 393.
What all share (assay): NCI anticancer screen, dose series, 48 h

For `CCCCCCCCCCCC1NC(N)=NC(CCCO)=C1C(=O)OC` (stereo unspecified), the GI50 in the experiment with COLO 205 was 1.88 µM (inactive); in the experiment with ACHN it was 4.22 µM (inactive); in the experiment on HCT-116, 1.92 µM (inactive); in the experiment on NCI-H23 it was 2.08 µM (inactive); in the experiment with OVCAR-8, 2.3 µM (inactive); with SK-OV-3, 2.33 µM (inactive). The GI50 with OVCAR-4 was 2.97 µM (inactive); with SR, 3.33 µM (inactive); in the experiment with NCI-H460 it was 1.94 µM (inactive); with HCT-15, 8.22 µM; with UACC-62 it was 4.38 µM (inactive); in the experiment with K562, 1.71 µM (inactive). The GI50 in the experiment on OVCAR-3 is 2.37 µM (inactive); in the experiment with NCI/ADR-RES, 17.7 µM (inactive); in the experiment with A549, 5.92 µM (inactive); in the experiment with CAKI-1 it was 7.06 µM (inactive); in the experiment with BT-549, 4.67 µM (inactive); with HOP-62, 2.82 µM (inactive). For the same compound, the GI50 with SF-295 was 2.93 µM (inactive).
In the case of `C=C(Br)C/N=C/N(C)C`, the GI50 in the experiment on COLO 205, in the experiment on ACHN, in the experiment with HCT-116, in the experiment on NCI-H23, with OVCAR-8 and in the experiment on SK-OV-3 was > 100 µM (inactive) each time. The GI50 with OVCAR-4 is > 100 µM (inactive); with SR it was > 100 µM (inactive); in the experiment on HCT-15, > 100 µM; with UACC-62 it was > 100 µM (inactive); in the experiment on K562, > 100 µM (inactive); in the experiment on OVCAR-3 it was > 100 µM (inactive). Also, the GI50 in the experiment on NCI/ADR-RES, with RXF 393, with A549, with CAKI-1, with BT-549 and with HOP-62 was > 100 µM (inactive) each time. In addition, the GI50 with SF-295 was > 100 µM (inactive).
With `O=S(=O)(Nc1ccccc1S(=O)(=O)c1ccccc1)c1ccccc1`, the GI50 with COLO 205 was 38.1 µM (inactive); with ACHN, 82.2 µM (inactive); with HCT-116, 77.1 µM (inactive); with NCI-H23 it was 46.7 µM (inactive); in the experiment on OVCAR-8, 68.5 µM (inactive); with SK-OV-3, > 100 µM (inactive). In addition, the GI50 in the experiment with OVCAR-4 is 51.3 µM (inactive); in the experiment with SR, > 100 µM (inactive); in the experiment with HCT-15, 50.6 µM; with UACC-62, 49 µM (inactive); in the experiment on K562, 61.5 µM (inactive); in the experiment with OVCAR-3, 65.6 µM (inactive). Also, the GI50 in the experiment with NCI/ADR-RES is 57.1 µM (inactive); in the experiment with RXF 393, > 100 µM (inactive); in the experiment with A549, 67.1 µM (inactive); in the experiment with CAKI-1, > 100 µM (inactive); in the experiment on BT-549 it was 63.1 µM (inactive); in the experiment on HOP-62, > 100 µM (inactive). The GI50 with SF-295 is 94.4 µM (inactive).
`C=CCc1cccc2cc(C(=O)Nc3nc(C45CC6CC(CC(C6)C4)C5)cs3)c(=O)oc12`: the GI50 with COLO 205 was 21.4 µM (inactive); in the experiment on ACHN, 17 µM (inactive); in the experiment on HCT-116, > 10 µM (inactive); in the experiment on NCI-H23, 18 µM (inactive); in the experiment with OVCAR-8, 85.9 µM (inactive); in the experiment with OVCAR-4, 21 µM (inactive). The GI50 is 28.9 µM (inactive) in the experiment with SR; 29.9 µM (inactive) in the experiment on NCI-H460; 67 µM in the experiment with HCT-15; 27.4 µM (inactive) in the experiment on K562; 24.4 µM (inactive) in the experiment on OVCAR-3; 27.2 µM (inactive) in the experiment with NCI/ADR-RES. Moreover, the GI50 is 6.08 µM (inactive) in the experiment with RXF 393; 49.9 µM (inactive) in the experiment with A549; 20.6 µM (inactive) in the experiment with CAKI-1; 70 µM (inactive) in the experiment with BT-549; 17.8 µM (inactive) in the experiment on HOP-62; 16.3 µM (inactive) with SF-295.
For the compound `Cc1cc(=O)oc2c3c(ccc12)OC(c1ccc(Br)cc1)CC3=O` (stereo unspecified), the GI50 was 12.7 µM (inactive) in the experiment on COLO 205; 11.7 µM (inactive) in the experiment with ACHN; 10.3 µM (inactive) in the experiment on HCT-116; 12.1 µM (inactive) with NCI-H23; 5.86 µM (inactive) with OVCAR-8; 8.15 µM (inactive) in the experiment on SK-OV-3. The GI50 in the experiment with OVCAR-4 is 26.5 µM (inactive); in the experiment on SR it was 3.23 µM (inactive); in the experiment with NCI-H460, 15 µM (inactive); in the experiment with HCT-15, 7.48 µM; in the experiment with UACC-62 it was 7.98 µM (inactive); in the experiment with K562 it was 2.83 µM (inactive). The GI50 with OVCAR-3 is 10.8 µM (inactive); in the experiment on NCI/ADR-RES, 12.5 µM (inactive); in the experiment on A549, 16.7 µM (inactive); with CAKI-1, 12.4 µM (inactive); in the experiment with BT-549, 3.03 µM (inactive); in the experiment on HOP-62, 7.69 µM (inactive). For the same compound, the GI50 in the experiment on SF-295 was 10.7 µM (inactive).
Consider `CC1COC(c2cn[nH]c2C(N)=O)C1O` (stereo unspecified), for which the GI50 in the experiment with COLO 205, in the experiment on ACHN, in the experiment on HCT-116, in the experiment on NCI-H23, in the experiment with OVCAR-8 and in the experiment with SK-OV-3 was > 100 µM (inactive) throughout. The GI50 in the experiment with OVCAR-4 is > 100 µM (inactive); with SR it was > 100 µM (inactive); in the experiment on NCI-H460, > 100 µM (inactive); with HCT-15, > 100 µM; with UACC-62, > 100 µM (inactive); with K562, > 100 µM (inactive). The GI50 in the experiment on OVCAR-3, with NCI/ADR-RES, in the experiment with A549, in the experiment on CAKI-1, in the experiment with BT-549 and in the experiment with HOP-62 was > 100 µM (inactive) each time. The GI50 with SF-295 is > 100 µM (inactive).
Regarding `COc1ccc(-c2nc3ncccn3c2-c2ccc(SC)cc2)cc1`, the GI50 in the experiment with COLO 205 was 1.33 µM (inactive); with ACHN, 7.57 µM (inactive); with HCT-116, 1.1 µM (active); in the experiment with NCI-H23, 3.3 µM (inactive); in the experiment on OVCAR-8, 3.92 µM (inactive); in the experiment with SK-OV-3, 0.439 µM (active). In addition, the GI50 is 8.69 µM (inactive) with OVCAR-4; 0.507 µM (active) in the experiment on SR; 2.18 µM (inactive) with NCI-H460; 1.51 µM in the experiment on HCT-15; 0.916 µM (active) in the experiment on UACC-62; 0.869 µM (active) in the experiment with K562. In addition, the GI50 was 0.44 µM (active) with OVCAR-3; 1.46 µM (inactive) in the experiment with NCI/ADR-RES; 2.88 µM (inactive) in the experiment on A549; 0.74 µM (active) in the experiment on CAKI-1; 1.45 µM (inactive) with BT-549; 5.64 µM (inactive) in the experiment on HOP-62. In the experiment on SF-295, the GI50 was 0.989 µM (active).
In the case of `CC[C@@]1(O)C(=O)OCc2c1cc1n(c2=O)Cc2c-1nc1ccccc1c2/C=N\NC(=O)C(N)Cc1ccc(O)cc1` (stereo partly specified), the GI50 in the experiment with COLO 205 was 12.6 µM (inactive); with ACHN, 0.133 µM (active); in the experiment on HCT-116, 0.804 µM (active); with NCI-H23 it was 0.233 µM (active); in the experiment with OVCAR-8, 0.809 µM (active); in the experiment on SK-OV-3 it was 0.869 µM (active). Further, the GI50 in the experiment on OVCAR-4 is 6.61 µM (inactive); with SR, < 0.0188 µM (active); in the experiment on NCI-H460, 0.187 µM (active); in the experiment with HCT-15 it was 4.32 µM; in the experiment with UACC-62 it was 0.209 µM (active); in the experiment with K562, 0.531 µM (active). Moreover, the GI50 was 1.33 µM (inactive) in the experiment with NCI/ADR-RES; 0.815 µM (active) in the experiment on A549; 0.315 µM (active) with CAKI-1; 1.9 µM (inactive) in the experiment on BT-549; 0.248 µM (active) in the experiment with HOP-62; 0.46 µM (active) in the experiment on SF-295.
For the compound `CC(C)C1OC(=O)/C=C/C=C/C=C/C=C/C=C/CC(O)CC(O)CC(O)CC(O)CC(O)CC(O)CC(O)CC(O)/C=C/C1C` (stereo unspecified), the GI50 in the experiment on COLO 205, in the experiment with ACHN, in the experiment with HCT-116, in the experiment on NCI-H23, in the experiment with OVCAR-8 and in the experiment with OVCAR-4 was > 100 µM (inactive) each time. The GI50 in the experiment with SR was > 100 µM (inactive); with NCI-H460, > 100 µM (inactive); in the experiment on HCT-15 it was > 100 µM; with K562, > 100 µM (inactive); in the experiment on OVCAR-3 it was > 100 µM (inactive); with NCI/ADR-RES, > 100 µM (inactive). Moreover, the GI50 with RXF 393 was 73.8 µM (inactive); in the experiment on A549, > 100 µM (inactive); in the experiment on CAKI-1 it was > 100 µM (inactive); in the experiment on BT-549, > 100 µM (inactive); in the experiment with HOP-62, > 100 µM (inactive); in the experiment with SF-295 it was > 100 µM (inactive).
For `CCCCCCC(O)C(O)CCC(O)C1CCC(CCCCC(O)CC2=CC(C)OC2=O)O1` (stereo unspecified) [ACETOGENINS], the GI50 was 1.75 µM (inactive) in the experiment on COLO 205; 1.19 µM (inactive) in the experiment with ACHN; 2.8 µM (inactive) in the experiment on HCT-116; 0.161 µM (active) in the experiment with NCI-H23; 2.18 µM (inactive) in the experiment on OVCAR-8; 17.5 µM (inactive) in the experiment with OVCAR-4. The GI50 is 1.69 µM (inactive) in the experiment with SR; 2.59 µM (inactive) with NCI-H460; 4.53 µM with HCT-15; 2.06 µM (inactive) with UACC-62; 1.82 µM (inactive) in the experiment with K562; 1.71 µM (inactive) with OVCAR-3. Moreover, the GI50 was 1.14 µM (inactive) with NCI/ADR-RES; 5.87 µM (inactive) in the experiment on RXF 393; 1.79 µM (inactive) with A549; 2.2 µM (inactive) with CAKI-1; 23.4 µM (inactive) in the experiment on BT-549; 3.81 µM (inactive) with HOP-62. Further, the GI50 in the experiment on SF-295 is 1.83 µM (inactive).
In the case of `O=C(O)c1cc(N(Cc2ccccc2O)Cc2cc(O)ccc2O)ccc1O` [LAVENDUSTIN A], the GI50 in the experiment with COLO 205, in the experiment with ACHN, with HCT-116, with NCI-H23, with OVCAR-8 and in the experiment with SK-OV-3 was > 100 µM (inactive) throughout. For the same compound, the GI50 was > 100 µM (inactive) in the experiment on OVCAR-4; 82.8 µM (inactive) in the experiment on SR; > 100 µM (inactive) in the experiment with NCI-H460; > 100 µM in the experiment with HCT-15; > 100 µM (inactive) in the experiment with UACC-62; > 100 µM (inactive) in the experiment with K562. The GI50 is > 100 µM (inactive) with OVCAR-3; > 100 µM (inactive) with NCI/ADR-RES; > 100 µM (inactive) with RXF 393; > 100 µM (inactive) in the experiment on A549; 6.21 µM (inactive) with BT-549; > 100 µM (inactive) in the experiment on HOP-62. In addition, the GI50 in the experiment with SF-295 is > 100 µM (inactive).
